Laboratory results taken from patent publication US9464326B2, “Total and phosphorylated IL-1 receptor-associated kinase-1 and IL-1 receptor-associated kinase-4 as a biomarker for cancer progression and chemotherapy resistance” (University of Maryland, Baltimore, priority 2012, dated 2016).

Test system: CCRF-CEM cells
Test: Cell number and apoptosis assays
Type: cell-based, human
Conditions: IRAK-1,-4 inhibitor 0-20 μM plus titrated drug, apoptosis by 7AAD at 48 hours, FIG. 23
Description: TLR ligands were diluted 2-fold. Cell lines (25-40×10^3/well) were cultured for 54 hours, whereas fresh patient-derived T-ALL cells (200×10^3/well) were cultured for 30 hours prior to adding [^3H]-thymidine for 18 hours. After this time point, cells were harvested with a Packard Filter-Mate-96 cell harvester (Perkin Elmer, Waltham, Mass., USA) and counted on Packard Top Count-NXT (Perkin Elmer, Waltham, Mass., USA). Results were expressed as average counts per minute (cpm). In some experiments CCRF-CEM cells were pre-treated with TLR1-TLR2 ligand (Pam3CysK4; 2.5 ug/ml) for 48 hrs, washed, and then cultured in the presence of varying concentrations of FBS. Forty-eight hours later, proliferation (±SD) was determined by ^3H-thymidine incorporation. Alternatively, apoptosis was measured by flow cytometry after staining cells with Annexin-V (BD Pharmingen, San Diego, Calif., USA) and propidium iodide (Sigma). Cell number was counted under microscopy by staining cells with trypan blue.
CCRF-CEM cells were treated with IRAK-1,-4 inhibitor for 24, 48, 72, and 96 hours.
The T-ALL cell line CCRF-CEM was cultured in the presence of 0, 1.2, 5, 10, and 20 μM IRAK-1,-4 inhibitor. (FIG. 23). To each concentration of IRAK-1,-4 inhibitor titrating doses of ABT-737 (1000→15 nM) vincristine, VS (10→0.1 nM), and paclitaxol, PAC (100→1.5 nM). […] Apoptosis was measure 48 hours later by staining cells with 7AAD and analyzed by flow cytometry.

oligomicin
synergy with IRAK-1,-4 inhibitor: No synergist effect
